One data set is described as follows: Aqueous solubility. The conditions noted are these: for Solub.: aqueous solubility.
The nature of data set [1]: Microsomal metabolic stability, rat liver microsomes (RLM). The conditions noted are these: rat liver microsomes. (In general: Microsomes from liver hold many membrane-bound enzymes, among them those of drug oxidation.)

Read-outs that look alike come from different tables or passages of the source. Bounds are passed on as bounds.

Take `O=C(Cc1ccccc1C(F)(F)F)NCCCn1c(=O)c2cc(F)ccc2n2c(=S)[nH]nc12` [compound 131, N-(3-(7-fluoro-5-oxo-1-thioxo-1,2-dihydro-[1,2,4]triazolo[4,3-a]quinazolin-4(5H)-yl)propyl)-2-(2-(trifluoromethyl)phenyl)acetamide]: the “Solub.” value in “Aqueous solubility” turned out to be 40.3 µg/mL. In addition, the “t1/2 (min, RLM)” value in data set [1] was 3.7 min. Besides, the “PAMPA” value in “PAMPA permeability” is 825 ×10⁻⁶ cm/s.

`CC(C)(C)OC(=O)Nc1ccc(CC(=O)NCCCn2c(=O)c3cc(F)ccc3n3c(=S)[nH]nc23)cc1` [compound 135, tert-butyl (4-(2-((3-(7-fluoro-5-oxo-1-thioxo-1,2-dihydro-[1,2,4]triazolo[4,3-a]quinazolin-4(5H)-yl)propyl)amino)-2-oxoethyl)phenyl)carbamate]: the “Solub.” value in “Aqueous solubility” came to 17.4 µg/mL. Also, the “t1/2 (min, RLM)” value in data set [1] is given as above 30 min. In addition, in “PAMPA permeability”, the “PAMPA” value is 910 ×10⁻⁶ cm/s.

Regarding `O=C(Cc1ccncc1)NCCCn1c(=O)c2cc(F)ccc2n2c(=S)[nH]nc12` [compound 138, N-(3-(7-fluoro-5-oxo-1-thioxo-1,2-dihydro-[1,2,4]triazolo[4,3-a]quinazolin-4(5H)-yl)propyl)-2-(pyridine-4-yl)acetamide], the “Solub.” value in the data set “Aqueous solubility” was 9.6 µg/mL. The “t1/2 (min, RLM)” value in data set [1] is listed as above 30 min. Further, in “PAMPA permeability”, the “PAMPA” value was below 1 ×10⁻⁶ cm/s.

Consider `O=C(Cc1ccccc1)NCCCn1c(=O)c2cc(F)ccc2n2c(=S)[nH]nc12` [compound 120, N-(3-(7-fluoro-5-oxo-1-thioxo-1,2-dihydro-[1,2,4]triazolo[4,3-a]quinazolin-4(5H)-yl)propyl)-2-phenylacetamide], for which, in “Aqueous solubility”, the “Solub.” value is 31.7 µg/mL. Besides, in data set [1], the “t1/2 (min, RLM)” value is on record as 18.7 min. For the same compound, in “PAMPA permeability”, the “PAMPA” value amounted to 248 ×10⁻⁶ cm/s.

For `O=C(Cc1cccc(Cl)c1)NCCCn1c(=O)c2cc(F)ccc2n2c(=S)[nH]nc12` [compound 124, 2-(3-chlorophenyl)-N-(3-(7-fluoro-5-oxo-1-thioxo-1,2-dihydro-[1,2,4]triazolo[4,3-a]quinazolin-4(5H)-yl)propyl)acetamide], the “Solub.” value in the data set “Aqueous solubility” was above 66 µg/mL. The “t1/2 (min, RLM)” value in data set [1] was found to be 8.4 min. Moreover, the “PAMPA” value in the data set “PAMPA permeability” was found to be 861 ×10⁻⁶ cm/s.

As to `Cc1ccc(CC(=O)NCCCn2c(=O)c3cc(F)ccc3n3c(=S)[nH]nc23)cc1` [compound 126, N-(3-(7-fluoro-5-oxo-1-thioxo-1,2-dihydro-[1,2,4]triazolo[4,3-a]quinazolin-4(5H)-yl)propyl)-2-(p-tolyl)acetamide], in “Aqueous solubility”, the “Solub.” value was found to be 12.9 µg/mL. For the same compound, the “t1/2 (min, RLM)” value in data set [1] is recorded as 23.9 min. Also, the “PAMPA” value in “PAMPA permeability” was found to be 621 ×10⁻⁶ cm/s.

For `COc1ccccc1CC(=O)NCCCn1c(=O)c2cc(F)ccc2n2c(=S)[nH]nc12` [compound 128, N-(3-(7-fluoro-5-oxo-1-thioxo-1,2-dihydro-[1,2,4]triazolo[4,3-a]quinazolin-4(5H)-yl)propyl)-2-(2-methoxyphenyl)acetamide], the “Solub.” value in “Aqueous solubility” was above 65 µg/mL. The “t1/2 (min, RLM)” value in data set [1] is 16.1 min. Besides, the “PAMPA” value in “PAMPA permeability” was determined as 379 ×10⁻⁶ cm/s.

Regarding `O=C(Cc1cccc(F)c1)NCCCn1c(=O)c2cc(F)ccc2n2c(=S)[nH]nc12` [compound 122, N-(3-(7-fluoro-5-oxo-1-thioxo-1,2-dihydro-[1,2,4]triazolo[4,3-a]quinazolin-4(5H)-yl)propyl)-2-(3-fluorophenyl)acetamide], in “Aqueous solubility”, the “Solub.” value is above 63 µg/mL. Also, the “t1/2 (min, RLM)” value in data set [1] is on record as 26.5 min. In addition, the “PAMPA” value in “PAMPA permeability” turned out to be 364 ×10⁻⁶ cm/s.

Turning to `O=C(Cc1ccc(Br)cc1)NCCCn1c(=O)c2cc(F)ccc2n2c(=S)[nH]nc12` [compound 125, 2-(4-bromophenyl)-N-(3-(7-fluoro-5-oxo-1-thioxo-1,2-dihydro-[1,2,4]triazolo[4,3-a]quinazolin-4(5H)-yl)propyl)acetamide], the “Solub.” value in “Aqueous solubility” was below 1 µg/mL. In addition, the “t1/2 (min, RLM)” value in data set [1] turned out to be 20.6 min. Besides, the “PAMPA” value in the data set “PAMPA permeability” came out at 767 ×10⁻⁶ cm/s.

On to `O=C(NCCCn1c(=O)c2cc(F)ccc2n2c(=S)[nH]nc12)c1ccccc1` [compound 74], for which the “PAMPA” value is 267 ×10⁻⁶ cm/s. In the data set “Aqueous solubility”, the “Solub.” value was 21.9 µg/mL. Also, in data set [1], the “t1/2 (min, RLM)” value was above 30 min.

For the compound `O=c1c2cc(F)ccc2n2c(=S)[nH]nc2n1CCc1ccc(Cl)cc1` [compound 82], the “PAMPA” value was below 1 ×10⁻⁶ cm/s. Moreover, the “Solub.” value in “Aqueous solubility” was determined as 1.2 µg/mL. The “t1/2 (min, RLM)” value in data set [1] is given as above 30 min.

Consider `O=c1c2cc(F)ccc2n2c(=S)[nH]nc2n1CCC1CCC(F)(F)CC1` [compound 93], for which the “PAMPA” value is 201 ×10⁻⁶ cm/s. In addition, in “Aqueous solubility”, the “Solub.” value was below 1 µg/mL. Besides, the “t1/2 (min, RLM)” value in data set [1] is above 30 min.

With `O=c1c2cc(F)ccc2n2c(=S)[nH]nc2n1Cc1ccccc1` [compound 52], the “PAMPA” value worked out at 841 ×10⁻⁶ cm/s. Moreover, the “Solub.” value in “Aqueous solubility” stood at 8.3 µg/mL. For the same compound, in data set [1], the “t1/2 (min, RLM)” value is listed as above 30 min.

As for `O=c1c2cc(F)ccc2n2c(=S)[nH]nc2n1CCC(F)(F)F` [compound 65], the “PAMPA” value came to 117 ×10⁻⁶ cm/s. Further, the PAMPA permeability entry (pH 7.4) was “moderate to good permeability”. In addition, in the data set “Aqueous solubility”, the solubility result is given as “moderate to good solubility” and the “Solub.” value worked out at 17.3 µg/mL. Also, the “t1/2 (min, RLM)” value in data set [1] is above 30 min.

As for `CC(C)(C)OC(=O)NC1CCC(C(=O)NCCCn2c(=O)c3cc(F)ccc3n3c(=S)[nH]nc23)CC1` (centres unmarked) [compound 110], the “PAMPA” value turned out to be 330 ×10⁻⁶ cm/s. Besides, the “Solub.” value in the data set “Aqueous solubility” is above 77 µg/mL. Moreover, in data set [1], the “t1/2 (min, RLM)” value stood at 24.8 min.

Consider `CN1CCN(CC(=O)NCCCn2c(=O)c3cc(F)ccc3n3c(=S)[nH]nc23)CC1` [compound 117], for which the “PAMPA” value was below 1 ×10⁻⁶ cm/s. Besides, the “Solub.” value in “Aqueous solubility” is above 64 µg/mL. Also, the “t1/2 (min, RLM)” value in data set [1] is on record as above 30 min.

With `O=c1c2cc(F)ccc2n2c(=S)[nH]nc2n1CCN1CCC(F)(F)CC1` [compound 89], the “PAMPA” value amounted to 234 ×10⁻⁶ cm/s. Besides, in “Aqueous solubility”, the “Solub.” value worked out at 20.2 µg/mL. In addition, the “t1/2 (min, RLM)” value in data set [1] is recorded as above 30 min.

Consider `O=c1c2cc(F)ccc2n2c(=S)[nH]nc2n1CCN1CCOCC1` [compound 90], for which the “PAMPA” value turned out to be 67.0 ×10⁻⁶ cm/s. Also, the “Solub.” value in “Aqueous solubility” was above 52 µg/mL. Also, the “t1/2 (min, RLM)” value in data set [1] is recorded as above 30 min.

For the compound `O=C(NCCCn1c(=O)c2cc(F)ccc2n2c(=S)[nH]nc12)C1CCCC1` [compound 108], the “PAMPA” value is 155 ×10⁻⁶ cm/s. In the data set “Aqueous solubility”, the “Solub.” value was above 58 µg/mL. Besides, the “t1/2 (min, RLM)” value in data set [1] is above 30 min.

Turning to `Nc1nnc2n(CCc3ccccc3)c(=O)c3cc(F)ccc3n12` [compound 16], the “PAMPA” value amounted to 885 ×10⁻⁶ cm/s. In the data set “Aqueous solubility”, the “Solub.” value was determined as 2.2 µg/mL. In addition, the “t1/2 (min, RLM)” value in data set [1] stood at 29.4 min.

Take `CCn1c(=O)c2ccccc2n2c(=S)[nH]nc12` [compound 20]: the “PAMPA” value amounted to 427 ×10⁻⁶ cm/s. For the same compound, the “Solub.” value in “Aqueous solubility” was above 36 µg/mL. For the same compound, in data set [1], the “t1/2 (min, RLM)” value is reported as above 30 min.

In the case of `CC(CN(C)C)n1c(=O)c2cc(F)ccc2n2c(=S)[nH]nc12` (centres unmarked) [compound 71], the “PAMPA” value was determined as 186 ×10⁻⁶ cm/s. Also, the “Solub.” value in “Aqueous solubility” is above 47 µg/mL. Besides, the “t1/2 (min, RLM)” value in data set [1] is on record as above 30 min.

The record behind these values is patent publication US20230365568A1, “PLK1 POLO BOX DOMAIN INHIBITORS AND METHOD OF TREATING CANCER” (The United States of America,as represented by the …, priority 2020, published 2023).
